Laboratory results published in US20100273701A1, “USE OF SALUSIN BETA ALONE OR IN COMBINATION WITH OCTREOTIDE AS A THERAPEUTIC AGENT” (priority 2007, published 2010).

How the values were obtained:
[1] = system: hepatitis B virus (HBV) ayw strain; experiment: HBV experimental assay system, HepG2-2.2.15 cells, TaqMan PCR of secreted HBV DNA; type: cell-based; details: 10 micrograms per ml, six days, combination 0.95 mole peptide 1 and 1.05 mole peptide 2
Human A549 cells = experiment: Apoptosis prevention assay (C2 ceramide, Annexin-5); type: cell-based; details: 10 micrograms per ml, 30 min pretreatment, combination 0.95 mole peptide 1 and 1.05 mole peptide 2
murine spleen cells = experiment: Th1/Th2 cytokine profiling assay; type: cell-based, Balb/c mice; details: 10 micrograms per ml, Ovalbumin restimulation, 72 hours; for production of IL-2 in murine spleen cells (induced / increased by): combination 0.95 mole peptide 1 and 1.05 mole peptide 2
[2] = system: Primary Human endothelial cells (HUVEC); experiment: Endothelial cell migration assay; type: cell-based; details: 10 micrograms per ml, 22 hours
HUVEC = experiment: Endothelial tube formation assay; type: cell-based, human; details: 10 micrograms per ml; 20 hours; combination peptide 1: peptide 2 1.10 mole: 0.90 mole
Source text: Positive control was vehicle only. […] Raw data were expressed as average tubule […] ±standard deviation.

Streptococcus pneumoniae = details: 10 micrograms per ml; read visually
HCMV strain AD169 = experiment: HCMV plaque formation assay in MRC-5 cells; details: for inhibition of HCMV plaque formation as compared to the virus control experiment: 10 micrograms per ml, 7-10 days
HIV-1III8 = type: cell-based

Row | Molecule | inhibition of HBV replication as compared to the virus control infection [1] | reduction of the ceramide-induced apoptosis on human lung cells (Human A549 cells) | change of the production of IL-4 in murine spleen cells (murine spleen cells) | change of the production of IL-5 in murine spleen cells (murine spleen cells) | change of the production of TNF-alpha in murine spleen cells (murine spleen cells) | production of IFN-γ in murine spleen cells (decreased by) (murine spleen cells) | production of IL-2 in murine spleen cells (induced / increased by) (murine spleen cells) | inhibition of the migration of human endothelial cells ([2]; combination peptide 1: peptide 2 1.10 mole: 0.90 mole) | inhibition of the tube formation of human endothelial cells (HUVEC) | inhibition of the growth of Streptococcus pneumoniae (Streptococcus pneumoniae) | inhibition of HCMV plaque formation as compared to the virus control experiment (HCMV strain AD169) | antiviral activity of positive control compounds (HIV-1) (HIV-1III8) | antiviral activity of positive control compound (HCMV) (HCMV strain AD169; positive control) | increase of the migration of endothelial cells [2]
1 | Ala-lle-Phe-Ile-Phe-Ile-Arg-Trp-Leu-Leu-Lys-Leu-Gly-His-His-Gly-Arg-Ala-Pro-Pro-OH [Peptide 1] | 44.6% | 28.2% | did not significantly change | did not significantly change | did not significantly change | did not significantly change | 156% | 19% | 23% | no inhibitory effects | did not inhibit | – | – | –
2 | Cc1cn([C@H]2C[C@H](N=[N+]=[N-])[C@@H](CO)O2)c(=O)[nH]c1=O [AZT] | – | – | – | – | – | – | – | – | – | – | – | expected levels of antiviral activity | – | –
3 | Nc1nc(O)c2ncn(COC(CO)CO)c2n1 [Ganciclovir] | – | – | – | – | – | – | – | – | – | – | – | – | expected levels of antiviral activity | –
4 | C[C@@H](O)[C@@H]1NC(=O)[C@H](CCCCN)NC(=O)[C@@H](Cc2c[nH]c3ccccc23)NC(=O)[C@H](Cc2ccccc2)NC(=O)[C@@H](NC(=O)[C@H](N)Cc2ccccc2)CSSC[C@@H](C(=O)N[C@H](CO)[C@@H](C)O)NC1=O [Peptide 2, D-Phe-Cys-Phe-D-Trp-Lys-Thr-Cys-L-threoninol] | 13.4% | did not reduce | did not significantly change | did not significantly change | did not significantly change | 44% | 59.5% | – | 8% | 100% | 2.9% | – | – | 24%
5 | CC(C)(C)NC(=O)[C@@H]1CN(Cc2cccnc2)CCN1C[C@@H](O)C[C@@H](Cc1ccccc1)C(=O)N[C@H]1c2ccccc2C[C@H]1O [indinavir] | – | – | – | – | – | – | – | – | – | – | – | expected levels of antiviral activity | – | –
